According to the kinase profiling compilation of Christmann-Franck et al. (2016):

Columns and labels:
Assay in all cases: radiometric filter-binding kinase assay, Kinase HotSpot
Details in all cases: compound 0.5 µM; ATP 10 µM
RPS6KA5 KD2 (human) = RPS6KA5 KD2 (human) (UniProt O75582)
CLK1 (human) = CLK1 (human) (UniProt P49759)
TSSK2 (human) = TSSK2 (human) (UniProt Q96PF2)
ROCK1 (human) = ROCK1 (human) (UniProt Q13464)
PIM2 (human) = PIM2 (human) (UniProt Q9P1W9)
STK39 (human) = STK39 (human) (UniProt Q9UEW8)
STK11 (human) = STK11 (human) (UniProt Q15831)
TYRO3 (human) = TYRO3 (human) (UniProt Q06418)
CDK2 CCNA2 (human) = CDK2 CCNA2 (human) (UniProt P24941+P20248)
STK33 (human) = STK33 (human) (UniProt Q9BYT3)
CDK4 CCND1 (human) = CDK4 CCND1 (human) (UniProt P24385+P11802)
PRKCI (human) = PRKCI (human) (UniProt P41743)
TSSK1B (human) = TSSK1B (human) (UniProt Q9BXA7)
TGFBR1 (human) = TGFBR1 (human) (UniProt P36897)
IRAK1 (human) = IRAK1 (human) (UniProt P51617)
CAMK2D (human) = CAMK2D (human) (UniProt Q13557)
DAPK3 (human) = DAPK3 (human) (UniProt O43293)
MYLK2 (human) = MYLK2 (human) (UniProt Q9H1R3)
DAPK2 (human) = DAPK2 (human) (UniProt Q9UIK4)
PRKD1 (human) = PRKD1 (human) (UniProt Q15139)
CAMK2A (human) = CAMK2A (human) (UniProt Q9UQM7)
GRK4 (human) = GRK4 (human) (UniProt P32298)
PBK (human) = PBK (human) (UniProt Q96KB5)
VRK1 (human) = VRK1 (human) (UniProt Q99986)
CDK3 CCNE1 (human) = CDK3 CCNE1 (human) (UniProt Q00526+P24864)
JAK3 JH1 JH2 (human) = JAK3 JH1 JH2 (human) (UniProt P52333)
RIPK2 (human) = RIPK2 (human) (UniProt O43353)
AKT3 (human) = AKT3 (human) (UniProt Q9Y243)
HIPK4 (human) = HIPK4 (human) (UniProt Q8NE63)
[1] = biological target: JAK1 JH1 catalytic (human) (UniProt P23458)
PRKCH (human) = PRKCH (human) (UniProt P24723)
CDK6 CCND3 (human) = CDK6 CCND3 (human) (UniProt P30281+Q00534)
MAPK1 (human) = MAPK1 (human) (UniProt P28482)
CAMK1G (human) = CAMK1G (human) (UniProt Q96NX5)
CHEK1 (human) = CHEK1 (human) (UniProt O14757)
YES1 (human) = YES1 (human) (UniProt P07947)
CAMK2B (human) = CAMK2B (human) (UniProt Q13554)
TAOK3 (human) = TAOK3 (human) (UniProt Q9H2K8)
GRK7 (human) = GRK7 (human) (UniProt Q8WTQ7)
[2] = biological target: TYK2 JH1 catalytic (human) (UniProt P29597)
EPHB4 (human) = EPHB4 (human) (UniProt P54760)

DAPK2 (human), sequence (Q9UIK4 whole entry, looked up): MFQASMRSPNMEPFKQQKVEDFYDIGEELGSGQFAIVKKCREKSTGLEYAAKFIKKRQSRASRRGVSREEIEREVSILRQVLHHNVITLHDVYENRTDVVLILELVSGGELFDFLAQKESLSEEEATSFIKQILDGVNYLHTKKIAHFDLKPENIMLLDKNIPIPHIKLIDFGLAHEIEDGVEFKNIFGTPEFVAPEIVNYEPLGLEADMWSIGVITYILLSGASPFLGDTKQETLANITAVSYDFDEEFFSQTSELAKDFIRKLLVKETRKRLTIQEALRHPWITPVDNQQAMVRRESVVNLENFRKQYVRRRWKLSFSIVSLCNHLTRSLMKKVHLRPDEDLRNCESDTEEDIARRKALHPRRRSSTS
CDK3 CCNE1 (human), sequence (P24864 whole entry, looked up): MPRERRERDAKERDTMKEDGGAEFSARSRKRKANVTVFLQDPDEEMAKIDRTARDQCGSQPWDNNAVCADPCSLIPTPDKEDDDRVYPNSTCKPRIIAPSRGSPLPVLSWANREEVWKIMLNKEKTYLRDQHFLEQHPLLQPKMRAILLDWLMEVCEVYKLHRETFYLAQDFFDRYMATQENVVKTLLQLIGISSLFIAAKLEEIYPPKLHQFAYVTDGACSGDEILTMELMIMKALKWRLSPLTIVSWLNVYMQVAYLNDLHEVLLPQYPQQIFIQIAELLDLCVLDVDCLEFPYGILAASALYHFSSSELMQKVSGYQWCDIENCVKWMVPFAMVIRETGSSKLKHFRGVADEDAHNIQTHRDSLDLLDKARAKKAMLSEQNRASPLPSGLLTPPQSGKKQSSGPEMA
CDK3 CCNE1 (human), sequence (Q00526 whole entry, looked up): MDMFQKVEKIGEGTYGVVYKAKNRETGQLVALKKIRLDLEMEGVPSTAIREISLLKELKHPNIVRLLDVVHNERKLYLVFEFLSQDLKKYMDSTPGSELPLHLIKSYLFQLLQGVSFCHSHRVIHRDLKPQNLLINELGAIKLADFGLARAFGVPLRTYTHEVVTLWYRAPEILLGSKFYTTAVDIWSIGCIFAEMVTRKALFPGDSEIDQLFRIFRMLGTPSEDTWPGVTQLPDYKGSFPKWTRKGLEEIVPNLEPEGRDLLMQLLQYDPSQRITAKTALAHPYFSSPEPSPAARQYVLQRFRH
TAOK3 (human), sequence (Q9H2K8 whole entry, looked up): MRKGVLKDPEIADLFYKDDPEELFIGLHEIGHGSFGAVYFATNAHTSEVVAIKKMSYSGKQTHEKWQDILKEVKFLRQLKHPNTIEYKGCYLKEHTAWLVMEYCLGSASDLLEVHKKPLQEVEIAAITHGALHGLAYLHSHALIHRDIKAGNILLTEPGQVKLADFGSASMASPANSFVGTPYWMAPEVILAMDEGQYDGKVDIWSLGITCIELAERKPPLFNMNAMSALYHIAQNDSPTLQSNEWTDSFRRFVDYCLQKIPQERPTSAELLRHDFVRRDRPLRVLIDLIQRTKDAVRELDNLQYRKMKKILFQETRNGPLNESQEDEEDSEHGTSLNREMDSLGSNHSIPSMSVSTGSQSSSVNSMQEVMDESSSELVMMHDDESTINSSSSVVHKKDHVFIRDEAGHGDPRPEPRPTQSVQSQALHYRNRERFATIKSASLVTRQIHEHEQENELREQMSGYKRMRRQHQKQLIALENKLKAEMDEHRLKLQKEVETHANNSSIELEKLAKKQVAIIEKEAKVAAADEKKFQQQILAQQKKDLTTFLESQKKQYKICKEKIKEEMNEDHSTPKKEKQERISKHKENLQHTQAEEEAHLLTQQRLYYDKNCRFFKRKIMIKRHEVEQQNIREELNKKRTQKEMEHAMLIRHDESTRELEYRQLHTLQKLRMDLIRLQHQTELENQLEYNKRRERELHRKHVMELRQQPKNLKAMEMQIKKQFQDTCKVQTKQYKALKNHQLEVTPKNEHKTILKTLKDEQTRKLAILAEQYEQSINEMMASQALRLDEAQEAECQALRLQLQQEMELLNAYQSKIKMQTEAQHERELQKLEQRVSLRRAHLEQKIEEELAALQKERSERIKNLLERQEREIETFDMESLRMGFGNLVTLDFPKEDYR
CHEK1 (human), sequence (O14757 whole entry, looked up): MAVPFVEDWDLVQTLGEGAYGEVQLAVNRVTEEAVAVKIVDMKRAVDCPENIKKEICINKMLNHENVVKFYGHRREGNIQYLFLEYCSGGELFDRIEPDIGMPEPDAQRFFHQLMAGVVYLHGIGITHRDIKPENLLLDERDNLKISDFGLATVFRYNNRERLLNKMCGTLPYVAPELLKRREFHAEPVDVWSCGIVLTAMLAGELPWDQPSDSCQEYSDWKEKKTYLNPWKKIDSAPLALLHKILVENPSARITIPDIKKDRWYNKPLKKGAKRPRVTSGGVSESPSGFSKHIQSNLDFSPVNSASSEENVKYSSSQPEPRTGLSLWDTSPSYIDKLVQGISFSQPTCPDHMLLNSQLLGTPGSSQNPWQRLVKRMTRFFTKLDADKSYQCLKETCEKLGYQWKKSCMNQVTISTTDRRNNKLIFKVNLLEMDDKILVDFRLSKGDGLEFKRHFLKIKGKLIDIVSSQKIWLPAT
PBK (human), sequence (Q96KB5 whole entry, looked up): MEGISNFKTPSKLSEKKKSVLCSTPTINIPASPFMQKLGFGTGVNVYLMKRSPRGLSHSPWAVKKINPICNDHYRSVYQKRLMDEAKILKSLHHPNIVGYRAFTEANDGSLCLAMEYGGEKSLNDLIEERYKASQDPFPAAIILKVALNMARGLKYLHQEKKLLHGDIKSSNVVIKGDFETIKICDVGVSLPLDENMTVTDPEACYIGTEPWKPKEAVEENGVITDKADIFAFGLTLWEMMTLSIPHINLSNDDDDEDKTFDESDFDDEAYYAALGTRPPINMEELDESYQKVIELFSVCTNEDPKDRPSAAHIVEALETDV
CAMK2D (human), sequence (Q13557 whole entry, looked up): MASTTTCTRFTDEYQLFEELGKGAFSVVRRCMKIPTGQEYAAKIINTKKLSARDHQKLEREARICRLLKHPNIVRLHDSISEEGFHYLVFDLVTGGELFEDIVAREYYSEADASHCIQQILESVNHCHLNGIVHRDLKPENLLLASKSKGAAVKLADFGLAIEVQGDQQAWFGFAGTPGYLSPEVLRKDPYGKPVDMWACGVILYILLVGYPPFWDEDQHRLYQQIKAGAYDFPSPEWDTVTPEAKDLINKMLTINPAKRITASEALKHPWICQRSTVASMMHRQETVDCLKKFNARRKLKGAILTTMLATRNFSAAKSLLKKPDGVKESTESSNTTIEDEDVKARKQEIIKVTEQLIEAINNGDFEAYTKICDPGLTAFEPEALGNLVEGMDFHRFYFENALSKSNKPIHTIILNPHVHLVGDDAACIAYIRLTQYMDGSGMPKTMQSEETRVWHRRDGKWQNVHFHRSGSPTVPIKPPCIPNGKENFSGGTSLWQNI
VRK1 (human), sequence (Q99986 whole entry, looked up): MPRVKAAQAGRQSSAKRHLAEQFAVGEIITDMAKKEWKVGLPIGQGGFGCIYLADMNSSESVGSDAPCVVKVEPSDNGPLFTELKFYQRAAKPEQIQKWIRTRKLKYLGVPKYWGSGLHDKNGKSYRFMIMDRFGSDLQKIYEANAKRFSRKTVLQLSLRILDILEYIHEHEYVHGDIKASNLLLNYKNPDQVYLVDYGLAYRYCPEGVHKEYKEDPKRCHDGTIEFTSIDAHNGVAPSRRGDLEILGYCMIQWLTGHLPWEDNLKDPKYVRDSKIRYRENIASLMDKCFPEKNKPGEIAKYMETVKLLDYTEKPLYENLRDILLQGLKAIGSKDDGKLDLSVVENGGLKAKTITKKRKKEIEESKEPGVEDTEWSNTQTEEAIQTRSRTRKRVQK
YES1 (human), sequence (P07947 whole entry, looked up): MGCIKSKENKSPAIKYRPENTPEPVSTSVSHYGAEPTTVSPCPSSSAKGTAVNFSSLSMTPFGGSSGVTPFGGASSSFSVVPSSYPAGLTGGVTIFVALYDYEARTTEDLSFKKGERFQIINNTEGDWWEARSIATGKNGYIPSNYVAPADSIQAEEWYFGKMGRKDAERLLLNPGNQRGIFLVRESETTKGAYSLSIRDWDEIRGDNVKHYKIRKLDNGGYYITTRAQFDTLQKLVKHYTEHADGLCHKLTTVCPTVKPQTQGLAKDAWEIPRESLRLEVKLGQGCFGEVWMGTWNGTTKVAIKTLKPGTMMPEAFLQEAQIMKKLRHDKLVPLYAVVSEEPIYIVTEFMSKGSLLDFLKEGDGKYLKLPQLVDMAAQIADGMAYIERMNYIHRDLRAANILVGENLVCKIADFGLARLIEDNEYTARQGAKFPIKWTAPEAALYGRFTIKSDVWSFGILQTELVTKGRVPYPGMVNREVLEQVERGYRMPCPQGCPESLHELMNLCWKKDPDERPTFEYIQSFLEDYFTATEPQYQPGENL
PRKCI (human), sequence (P41743 whole entry, looked up): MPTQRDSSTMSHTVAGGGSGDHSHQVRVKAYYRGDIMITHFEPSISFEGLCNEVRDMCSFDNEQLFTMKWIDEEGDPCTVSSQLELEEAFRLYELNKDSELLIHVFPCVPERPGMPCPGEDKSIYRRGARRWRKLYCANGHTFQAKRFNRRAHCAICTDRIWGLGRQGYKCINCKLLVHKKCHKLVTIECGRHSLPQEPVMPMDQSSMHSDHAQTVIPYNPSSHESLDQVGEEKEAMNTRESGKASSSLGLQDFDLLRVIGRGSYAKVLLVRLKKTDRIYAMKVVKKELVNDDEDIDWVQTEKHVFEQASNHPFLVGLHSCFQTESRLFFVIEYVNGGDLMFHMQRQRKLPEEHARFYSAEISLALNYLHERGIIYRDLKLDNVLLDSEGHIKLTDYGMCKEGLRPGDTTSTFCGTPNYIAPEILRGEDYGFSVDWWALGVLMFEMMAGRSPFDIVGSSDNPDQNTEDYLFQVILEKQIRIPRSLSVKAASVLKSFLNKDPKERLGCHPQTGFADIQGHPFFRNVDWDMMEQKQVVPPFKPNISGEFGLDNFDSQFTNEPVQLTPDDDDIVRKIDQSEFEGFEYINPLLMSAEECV

O=C(c1ccccc1)c1ccc(N2CCOCC2)cc1O was tested, and the residual activity (RPS6KA5 KD2 (human)) was 102%, the residual activity (CLK1 (human)) was 108% and the residual activity (TSSK2 (human)) was 104%. For the same compound, the residual activity (ROCK1 (human)) was 93.4%, the residual activity (PIM2 (human)) was 105% and the residual activity (STK39 (human)) was 94.8%. It also gave a residual activity (STK11 (human)) of 104%, a residual activity (TYRO3 (human)) of 101% and a residual activity (CDK2 CCNA2 (human)) of 99.3%. It also gave a residual activity (STK33 (human)) of 108%, a residual activity (CDK4 CCND1 (human)) of 96.1% and a residual activity (PRKCI (human)) of 98.3%. It also gave a residual activity (TSSK1B (human)) of 107%, a residual activity (TGFBR1 (human)) of 94.3% and a residual activity (IRAK1 (human)) of 103%. The residual activity (CAMK2D (human)) was 95.1%, the residual activity (DAPK3 (human)) was 100% and the residual activity (MYLK2 (human)) was 99.1%. It also gave a residual activity (DAPK2 (human)) of 102%, a residual activity (PRKD1 (human)) of 102% and a residual activity (CAMK2A (human)) of 105%. The residual activity (GRK4 (human)) was 104%, the residual activity (PBK (human)) was 114% and the residual activity (VRK1 (human)) was 89.7%. The residual activity (CDK3 CCNE1 (human)) was 105%, the residual activity (JAK3 JH1 JH2 (human)) was 103% and the residual activity (RIPK2 (human)) was 95%. For the same compound, the residual activity (AKT3 (human)) was 105%, the residual activity (HIPK4 (human)) was 99.5% and the residual activity [1] was 108%. It also gave a residual activity (PRKCH (human)) of 70%, a residual activity (CDK6 CCND3 (human)) of 97.7% and a residual activity (MAPK1 (human)) of 96.7%. It also gave a residual activity (CAMK1G (human)) of 96.1%, a residual activity (CHEK1 (human)) of 108% and a residual activity (YES1 (human)) of 103%. For the same compound, the residual activity (CAMK2B (human)) was 105%, the residual activity (TAOK3 (human)) was 99% and the residual activity (GRK7 (human)) was 99.6%. For the same compound, the residual activity [2] was 110%.

COc1cc2c(Nc3ccc(Br)cc3F)ncnc2cc1OCC1CCN(C)CC1 gave a residual activity (RPS6KA5 KD2 (human)) of 101%, a residual activity (CLK1 (human)) of 105% and a residual activity (TSSK2 (human)) of 95.9%. It also gave a residual activity (ROCK1 (human)) of 99.4%, a residual activity (PIM2 (human)) of 99.4% and a residual activity (STK39 (human)) of 97.4%. The residual activity (EPHB4 (human)) was 13%, the residual activity (STK11 (human)) was 105% and the residual activity (TYRO3 (human)) was 33%. It also gave a residual activity (CDK2 CCNA2 (human)) of 94.6%, a residual activity (STK33 (human)) of 85.1% and a residual activity (CDK4 CCND1 (human)) of 94.8%. The residual activity (PRKCI (human)) was 88.1%, the residual activity (TSSK1B (human)) was 96.6% and the residual activity (TGFBR1 (human)) was 102%. It also gave a residual activity (IRAK1 (human)) of 87.7%, a residual activity (CAMK2D (human)) of 95.8% and a residual activity (DAPK3 (human)) of 90.3%. It also gave a residual activity (MYLK2 (human)) of 97.1%, a residual activity (DAPK2 (human)) of 93.3% and a residual activity (PRKD1 (human)) of 99.3%. It also gave a residual activity (CAMK2A (human)) of 99.8%, a residual activity (GRK4 (human)) of 102% and a residual activity (PBK (human)) of 98.9%. The residual activity (VRK1 (human)) was 98.9%, the residual activity (CDK3 CCNE1 (human)) was 92.9% and the residual activity (JAK3 JH1 JH2 (human)) was 96%. It also gave a residual activity (RIPK2 (human)) of 23.4%, a residual activity (AKT3 (human)) of 100% and a residual activity (HIPK4 (human)) of 100%. It also gave a residual activity [1] of 99.1%, a residual activity (PRKCH (human)) of 117% and a residual activity (MAPK1 (human)) of 99.1%. For the same compound, the residual activity (CAMK1G (human)) was 101%, the residual activity (CHEK1 (human)) was 94.4% and the residual activity (YES1 (human)) was 11.3%. The residual activity (CAMK2B (human)) was 98.2%, the residual activity (TAOK3 (human)) was 98.4% and the residual activity (GRK7 (human)) was 96.4%. It also gave a residual activity [2] of 97.7%.

c1ccc(-c2cnc(Nc3ccc(OCCN4CCCC4)cc3)s2)cc1 was tested, and the residual activity (RPS6KA5 KD2 (human)) was 104%, the residual activity (CLK1 (human)) was 89.4% and the residual activity (TSSK2 (human)) was 89%. It also gave a residual activity (ROCK1 (human)) of 102%, a residual activity (PIM2 (human)) of 108% and a residual activity (STK39 (human)) of 75.4%. It also gave a residual activity (EPHB4 (human)) of 91.9%, a residual activity (STK11 (human)) of 103% and a residual activity (TYRO3 (human)) of 90.9%. For the same compound, the residual activity (CDK2 CCNA2 (human)) was 85.2%, the residual activity (STK33 (human)) was 91% and the residual activity (CDK4 CCND1 (human)) was 61.2%. For the same compound, the residual activity (PRKCI (human)) was 93.1%, the residual activity (TSSK1B (human)) was 96.5% and the residual activity (TGFBR1 (human)) was 97%. It also gave a residual activity (IRAK1 (human)) of 109%, a residual activity (CAMK2D (human)) of 48.2% and a residual activity (DAPK3 (human)) of 105%. It also gave a residual activity (MYLK2 (human)) of 28.7%, a residual activity (DAPK2 (human)) of 90.3% and a residual activity (PRKD1 (human)) of 78.4%. It also gave a residual activity (CAMK2A (human)) of 62.9%, a residual activity (GRK4 (human)) of 98.3% and a residual activity (PBK (human)) of 108%. It also gave a residual activity (VRK1 (human)) of 89.1%, a residual activity (CDK3 CCNE1 (human)) of 97.6% and a residual activity (JAK3 JH1 JH2 (human)) of 108%. The residual activity (RIPK2 (human)) was 50.4%, the residual activity (HIPK4 (human)) was 98.5% and the residual activity [1] was 101%. For the same compound, the residual activity (PRKCH (human)) was 88.2%, the residual activity (CDK6 CCND3 (human)) was 20.1% and the residual activity (MAPK1 (human)) was 83.4%. For the same compound, the residual activity (CAMK1G (human)) was 101%, the residual activity (CHEK1 (human)) was 86.6% and the residual activity (YES1 (human)) was 42.1%. It also gave a residual activity (CAMK2B (human)) of 84.2%, a residual activity (TAOK3 (human)) of 87.4% and a residual activity (GRK7 (human)) of 90.2%. It also gave a residual activity [2] of 106%.
